Calls of active or inactive are those of the source. The rule behind the calls is not given here.
Columns and labels:
RKO [1] = experiment: Induction of cell cycle arrest in human RKO cells assessed as accumulation at G0/G1 phase at 0.625 uM after 24 hrs by PI-staining based flow cytometry (reference value: 52%); type: functional
SW-620 [2] = experiment: Antiproliferative activity against human SW620 cells at 10 uM after 72 hrs by MTT assay; type: functional, cell-based
[3] = Therapeutic index, ratio of IC50 for human NHDF cells to IC50 for human RKO cells after 72 hrs; type: toxicity; conditions: NHDF cells versus RKO cells, read-out: Ratio IC50
RKO [4] = experiment: Induction of apoptosis in human RKO cells assessed as increase in bax protein expression after 24 to 72 hrs by Western blot analysis; type: functional, cell-based
RKO [5] = experiment: Induction of ROS generation in human RKO cells by fluorescence based assay; type: functional, cell-based
[6] = Therapeutic index, ratio of IC50 for human NHDF cells to IC50 for human HT-29 cells after 72 hrs; type: toxicity; conditions: NHDF cells versus HT-29 cells, read-out: Ratio IC50
RKO [7] = experiment: Induction of cell cycle arrest in human RKO cells assessed as accumulation at G0/G1 phase at 2.5 uM after 24 hrs by PI-staining based flow cytometry (reference value: 52%); type: functional
[8] = Therapeutic index, ratio of IC50 for human NHDF cells to IC50 for human T84 cells after 72 hrs; type: toxicity; conditions: NHDF cells versus T84 cells, read-out: Ratio IC50
NHDF = experiment: Cytotoxicity against human NHDF cells assessed as reduction in cell viability; type: cell-based
RKO [9] = experiment: Induction of apoptosis in human RKO cells assessed as increase in caspase-9 expression after 24 to 72 hrs by Western blot analysis; type: functional, cell-based
RKO [10] = experiment: Induction of apoptosis in human RKO cells after 24 to 72 hrs by Annexin V-FITC/PI staining based flow cytometry; type: functional, cell-based
RKO [11] = experiment: Induction of cell cycle arrest in human RKO cells assessed as accumulation at G2/M phase at 0.625 uM after 24 hrs by PI-staining based flow cytometry (reference value: 20%); type: functional
RKO [12] = experiment: Inhibition of colony formation in human RKO cells after 9 days by crystal violet staining based assay; type: functional, cell-based
HT-29 [13] = experiment: Antiproliferative activity against human HT-29 cells assessed as reduction in cell viability after 72 hrs by MTT assay; type: functional, cell-based; conditions: HT-29, 72 h
RKO [14] = experiment: Induction of cell cycle arrest in human RKO cells assessed as accumulation at G2/M phase at 1.25 uM after 24 hrs by PI-staining based flow cytometry (reference value: 20%); type: functional
RKO [15] = experiment: Induction of apoptosis in human RKO cells at 0.625 to 5 uM after by Annexin V-FITC/PI staining based flow cytometry; type: functional, cell-based; conditions: TDE = time-dependent effect
RKO [16] = experiment: Induction of cell cycle arrest in human RKO cells assessed as accumulation at G0/G1 phase at 1.25 uM after 24 hrs by PI-staining based flow cytometry (reference value: 52%); type: functional
RKO [17] = experiment: Induction of apoptosis in human RKO cells assessed as reduction in procaspase-7 expression after 24 to 72 hrs by Western blot analysis; type: functional, cell-based
RKO [18] = experiment: Antiproliferative activity against human RKO cells at 10 uM after 72 hrs by MTT assay; type: functional, cell-based
NCI-H508 [19] = experiment: Antiproliferative activity against human NCI-H508 cells at 10 uM after 72 hrs by MTT assay; type: functional, cell-based
RKO [20] = experiment: Induction of apoptosis in human RKO cells assessed as reduction in bcl-xl expression after 72 hrs by Western blot analysis; type: functional, cell-based
[21] = Therapeutic index, ratio of IC50 for human NHDF cells to IC50 for human LoVo cells after 72 hrs; type: toxicity; conditions: NHDF cells versus LoVo cells, read-out: Ratio IC50
RKO [22] = experiment: Induction of apoptosis in human RKO cells assessed as reduction in bcl-xl expression after 24 hrs by Western blot analysis; type: functional, cell-based
RKO [23] = experiment: Induction of apoptosis in human RKO cells assessed as reduction in bcl-2 expression after 24 hrs by Western blot analysis; type: functional, cell-based
[24] = Therapeutic index, ratio of IC50 for human NHDF cells to IC50 for human NCI-H508 cells after 72 hrs; type: toxicity; conditions: NHDF cells versus NCI-H508 cells, read-out: Ratio IC50
RKO [25] = experiment: Induction of apoptosis in human RKO cells assessed as increase in bad protein expression after 24 to 72 hrs by Western blot analysis; type: functional, cell-based
[26] = Therapeutic index, ratio of IC50 for human NHDF cells to IC50 for human SW620 cells after 72 hrs; type: toxicity; conditions: NHDF cells versus SW620 cells, read-out: Ratio IC50
RKO [27] = experiment: Induction of cell cycle arrest in human RKO cells assessed as accumulation at S phase at 0.625 uM after 24 hrs by PI-staining based flow cytometry (reference value: 28%); type: functional
NCI-H508 [28] = experiment: Antiproliferative activity against human NCI-H508 cells assessed as reduction in cell viability after 72 hrs by MTT assay; type: functional, cell-based; conditions: NCI-H508, 72 h
RKO [29] = experiment: Induction of cell cycle arrest in human RKO cells assessed as accumulation at G2/M phase at 2.5 uM after 24 hrs by PI-staining based flow cytometry (reference value: 20%); type: functional
RKO [30] = experiment: Antiproliferative activity against human RKO cells assessed as reduction in cell viability after 72 hrs by MTT assay; type: functional, cell-based
RKO [31] = experiment: Inhibition of colony formation in human RKO cells at 1.25 to 5 uM after 9 days by crystal violet staining based assay; type: functional, cell-based
SW-620 [32] = experiment: Antiproliferative activity against human SW620 cells assessed as reduction in cell viability after 72 hrs by MTT assay; type: functional, cell-based; conditions: SW-620, 72 h
RKO [33] = experiment: Inhibition of colony formation in human RKO cells at 0.625 uM treated for 9 days by crystal violet staining based assay; type: functional, cell-based
T84 [34] = experiment: Antiproliferative activity against human T84 cells at 10 uM after 72 hrs by MTT assay; type: functional, cell-based
LoVo [35] = experiment: Antiproliferative activity against human LoVo cells assessed as reduction in cell viability after 72 hrs by MTT assay; type: functional, cell-based
RKO [36] = experiment: Induction of apoptosis in human RKO cells assessed as reduction in procaspase-9 expression after 24 to 72 hrs by Western blot analysis; type: functional, cell-based
RKO [37] = experiment: Induction of apoptosis in human RKO cells assessed as reduction in procaspase-3 expression after 24 to 72 hrs by Western blot analysis; type: functional, cell-based
RKO [38] = experiment: Induction of cell cycle arrest in human RKO cells assessed as accumulation at S phase at 1.25 uM after 24 hrs by PI-staining based flow cytometry (reference value: 28%); type: functional
T84 [39] = experiment: Antiproliferative activity against human T84 cells assessed as reduction in cell viability after 72 hrs by MTT assay; type: functional, cell-based; conditions: T84, 72 h
RKO [40] = experiment: Induction of cell cycle arrest in human RKO cells assessed as accumulation at S phase at 2.5 uM after 24 hrs by PI-staining based flow cytometry (reference value: 28%); type: functional
HT-29 [41] = experiment: Antiproliferative activity against human HT-29 cells at 10 uM after 72 hrs by MTT assay; type: functional, cell-based
LoVo [42] = experiment: Antiproliferative activity against human LoVo cells at 10 uM after 72 hrs by MTT assay; type: functional, cell-based

SMILES: COc1cc(/C=C2\CCC/C(=C\c3ccc(O)c(Cl)c3)C2=O)cc(OC)c1OC
- Activity (RKO [1]): 52%
- Activity (SW-620 [2]): Active
- selectivity ratio at 72 h [3]: 1.8 to 9.9
- Activity (RKO [4]): Active
- Activity (RKO [5]): Dose-dependent effect
- selectivity ratio at 72 h [6]: 1.8 to 9.9
- Activity (RKO [7]): 27%
- selectivity ratio at 72 h [8]: 1.8 to 9.9
- IC50 (NHDF): 6900 nM
- Activity (RKO [9]): Active
- Activity (RKO [10]): Dose-dependent effect
- Activity (RKO [11]): 21%
- inhibition (RKO [12]): Dose-dependent effect
- IC50 (HT-29 [13]): 3400 nM
- Activity (RKO [14]): 28%
- Activity (RKO [15]): Tde
- Activity (RKO [16]): 52%
- Activity (RKO [17]): Active
- Activity (RKO [18]): Active
- Activity (NCI-H508 [19]): Active
- Activity (RKO [20]): inactive
- selectivity ratio at 72 h [21]: 1.8 to 9.9
- Activity (RKO [22]): Active
- Activity (RKO [23]): Active
- selectivity ratio at 72 h [24]: 1.8 to 9.9
- Activity (RKO [25]): Active
- selectivity ratio at 72 h [26]: 1.8 to 9.9
- Activity (RKO [27]): 27%
- IC50 (NCI-H508 [28]): 4000 nM
- Activity (RKO [29]): 50%
- IC50 (RKO [30]): 700 nM
- inhibition (RKO [31]): Active
- IC50 (SW-620 [32]): 800 nM
- inhibition (RKO [33]): inactive
- Activity (T84 [34]): Active
- IC50 (LoVo [35]): 1100 nM
- Activity (RKO [36]): Active
- Activity (RKO [37]): Active
- Activity (RKO [38]): 20%
- IC50 (T84 [39]): 1800 nM
- Activity (RKO [40]): 23%
- Activity (HT-29 [41]): Active
- Activity (LoVo [42]): Active
